Here are results for seven molecules from PMC9502539, “1,2,3-Triazole-Benzofused Molecular Conjugates as Potential Antiviral Agents against SARS-CoV-2 Virus Variants” (Life, 2022).

The target of this experiment is Omicron spike protein (Severe acute respiratory syndrome coronavirus 2, UniProt P0DTC2, E484A/G339D/G446S/G496S/K417N/N440K/N501Y/Q493R/Q498R/S371L/S373P/S375F/S477N/T478K/Y505H). The class given is binding, SARS-CoV-2 Omicron variant (B.1.1.529 BA.1).

Read-outs that look alike come from different tables or passages of the source.

`Cc1onc(NS(=O)(=O)c2ccc(-n3cc(CSc4nc5ccccc5n4Cc4cn(-c5ccc(S(=O)(=O)Nc6noc(C)c6C)cc5)nn4)nn3)cc2)c1C` [compound 9]: the “remaining activity % of omicron spike proteins” value (“remaining activity %” below) is recorded as 65.8% (0.1 µM); 30.4% (0.2 µM); 10.3% (0.5 µM); 5.1% (0.75 µM); 2% (1 µM).

As to `CC(C)(O/N=C(\C(=O)N[C@@H]1C(=O)N2C(C(=O)[O-])=C(C[n+]3ccccc3)CS[C@H]12)c1csc(N)n1)C(=O)O` [Ceftazidime, ceftazidime, reference compound], the “remaining activity %” value is 89% (0.1 µM); 68% (0.2 µM); 54% (0.5 µM); 44% (0.75 µM); 34% (1 µM).

For the molecule `O=C(Cn1cc(CSc2nc3ccccc3n2Cc2cn(CC(=O)NNC(=S)Nc3ccc(F)cc3)nn2)nn1)NNC(=S)Nc1ccc(F)cc1` [compound 5], the “remaining activity %” value runs as follows: (0.1 µM) 82%; (0.2 µM) 38.7%; (0.5 µM) 30%; (0.75 µM) 20%; (1 µM) 16%.

Regarding `O=C(Cn1cc(CSc2nc3ccccc3n2Cc2cn(CC(=O)NNC(=S)Nc3ccccc3)nn2)nn1)NNC(=S)Nc1ccccc1` [compound 4], the “remaining activity %” value runs as follows: (0.1 µM) 73.1%; (0.2 µM) 40%; (0.5 µM) 20%; (0.75 µM) 10%; (1 µM) 8%.

Take `Nn1c(Cn2cc(CSc3nc4ccccc4n3Cc3cn(Cc4n[nH]c(=S)n4N)nn3)nn2)n[nH]c1=S` [compound 7]: the “remaining activity %” value stood at 85% (0.1 µM); 43% (0.2 µM); 40% (0.5 µM); 35% (0.75 µM); 30% (1 µM).

`Cc1ccc2nc(NC(=O)Cn3cc(CN4C(=O)C(=O)c5ccccc54)nn3)sc2c1` [compound 12]: the “remaining activity %” value by setting is: (0.1 µM) 94%; (0.2 µM) 90%; (0.5 µM) 82%; (0.75 µM) 74%; (1 µM) 59%.

Regarding `S=c1[nH]nc(Cn2cc(CSc3nc4ccccc4n3Cc3cn(Cc4n[nH]c(=S)n4-c4ccccc4)nn3)nn2)n1-c1ccccc1` [compound 6], the “remaining activity %” value is, setting by setting: (0.1 µM) 79%; (0.2 µM) 45.6%; (0.5 µM) 29%; (0.75 µM) 16%; (1 µM) 10%.
